For data set [1], the target named is T1, delta opioid receptor, mouse vas deferens (MVD)(δ) (Mus musculus, UniProt P32300).
T1 construct: tissue Charles River; host or cells: isolated mouse vas deferens (DC1 strain)
Put plainly: delta opioid agonist activity in mouse vas deferens (inhibition of electrically-induced contractions). The settings on record: isolated mouse vas deferens; inhibition of electrically-induced contractions in the presence of 300 nM mu-selective antagonist CTOP; measure of δ agonism. The procedure: Opioid (delta, mu and kappa) activity was studied in two isolated tissues, the mouse vas deferens (MVD)(δ) and the guinea-pig myentric plexus with attached longitudinal muscle (GPMP)(μ and κ).
MVD (DC1 strain, Charles River, 25-35 g) were suspended in 15 ml organ baths containing Mg^++-free Krebs' buffer of the following composition (mM): NaCl, 119; KCl, 4.7; NaHCO3, 25; KH2PO4, 1.2; CaCl2, 2,5 and glucose, 11. The buffer was gassed with 95% O2 and 5% CO2. The tissues were suspended between platinum electrodes, attached to an isometric transducer with 500 mg tension and stimulated with 0.03 Hz pulses of 1-msec pulse-width at supramaxinal voltage. IC50 values were determined by the regression analysis of concentration-response curves for inhibition of electrically-induced contractions in the presence of 300 nM of the mu-selective antagonist CTOP. This test is a measure of δ agonism.
The delta opioid agonist activity of a number of compounds were determined in mouse vas deferens (as described above) with the following results: […]

T1 sequence (P32300 whole entry): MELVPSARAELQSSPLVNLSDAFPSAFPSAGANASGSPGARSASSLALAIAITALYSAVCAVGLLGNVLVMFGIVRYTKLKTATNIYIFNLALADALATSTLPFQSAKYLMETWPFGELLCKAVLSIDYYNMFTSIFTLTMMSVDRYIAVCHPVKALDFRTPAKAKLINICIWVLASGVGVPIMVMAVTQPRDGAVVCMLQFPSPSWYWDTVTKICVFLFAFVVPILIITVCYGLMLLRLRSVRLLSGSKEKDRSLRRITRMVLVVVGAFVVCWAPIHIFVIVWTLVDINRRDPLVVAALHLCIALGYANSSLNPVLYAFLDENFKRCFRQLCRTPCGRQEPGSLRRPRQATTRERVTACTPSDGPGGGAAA

In turn, `C=CCN1C[C@H](C)N([C@H](c2ccc(-c3nnn(CCOCC(=O)O)n3)cc2)c2cccc(O)c2)C[C@H]1C` gave a melting point of 137 to 140 °C.
Consider `C=CCN1C[C@H](C)N([C@H](c2ccc(-c3nnn[nH]3)cc2)c2cccc(O)c2)C[C@H]1C` [Example 1, (+)-5-{4-[(R)-α-(2(S),5(R)-4-Allyl-2,5-dimethyl-1-piperazinyl)-3-hydroxybenzyl]phenyl}-1H-tetrazole], for which the IC50 in data set [1] was 0.2 nM.
As to `C[C@@H]1CN([C@H](c2ccc(-c3nnn[nH]3)cc2)c2cccc(O)c2)[C@@H](C)CN1Cc1ccccc1` [Example 4, (−)-5-{4-[(R)-α-(2(S),5(R)-4-benzyl-2,5-dimethyl-1-piperazinyl)-3-hydroxybenzyl]phenyl}-1H-tetrazole], the IC50 in data set [1] was 0.0126 nM.
Consider `C=CCN1C[C@H](C)N([C@H](c2ccc(-c3nnn(CCCCC(=O)O)n3)cc2)c2cccc(O)c2)C[C@H]1C` [Example 42, (+)-5-(5-{4-[(R)-α-(2(S),5(R)-4-Allyl-2,5-dimethyl-1-piperazinyl)-3-hydroxybenzyl]phenyl}-2-tetrazolyl)valeric Acid], for which, in data set [1], the IC50 was 0.316 nM.

Values taken from patent US6514975B1, “Anti-inflammatory piperazinyl-benzyl-tetrazole derivatives and intermediates thereof” (Pfizer Inc, priority 1997, dated 2003).
